Laboratory results taken from US20090048336A1, “ESCITALOPRAM OXALATE POWDERS” (priority 2007, published 2009).
Where a name gives a salt, the structure may show the parent alone.

Experiment: Particle size distribution of micronized escitalopram oxalate batches (laser light diffraction, Malvern instrument)
Format: physicochemical
Conditions: micronized powder; for D50/D95: ratio of D50 to D95; for D50: size below which 50 volume percent of particles lie; for D50 / D95: Malvern instrument; for D95: size below which 95 volume percent of particles lie
Excerpt: The term D95 as used herein is defined as a size of particles where 95 volume percent of the particles have sizes less than the value given. The term D50 defines a size where 50 volume percent of the particles have sizes less than the value given.
The particle size distributions for the present application can measured using laser light diffraction equipment, such as are sold by Malvern Instruments Ltd., Malvern, Worcestershire, United Kingdom. Other types of equipment are also suitable for particle size distribution determinations.
The obtained solid was micronized in a jet mill to produce desired particle sizes. The feed pressure was adjusted to about 2 Kg/cm^2; the chamber pressure was adjusted to about 1.5 Kg/cm^2 and the feed rate to about 1 to 2 kg/hour. The material fed into the micronizer through a charging hopper. The obtained micronized material was collected into a container.

Compound	D50/D95 (listed as 1)	D50 (listed as 1)	D95 (listed as 1)	D50/D95 (listed as 2)	D50 (listed as 2)	D95 (listed as 2)
CN(C)CCCC1(c2ccc(F)cc2)OCc2cc(C#N)ccc21 (stereo not drawn) [Batch 1, S-(+)-1-[3-(dimethyl-amino)propyl]-1-(p-fluorophenyl)-5-phthalancarbonitrile oxalate]	0.4293	3.95	9.20	–	–	–
CN(C)CCCC1(c2ccc(F)cc2)OCc2cc(C#N)ccc21 (stereo not drawn) [Batch 2, S-(+)-1-[3-(dimethyl-amino)propyl]-1-(p-fluorophenyl)-5-phthalancarbonitrile oxalate]	–	–	–	0.4653	4.56	9.80
